{"source": "patent US20030068374A1", "about": "“Sustained release preparations of physiologically active compound hardly soluble in water and production process and use of the same” (priority 2000, published 2003)", "origin": "cited, not measured here", "conditions": "in water, 18° C."}
{"smiles": "[O]=[Zn]", "note": "[zinc oxide]", "values": [{"measurement": "solubility", "value": 0.42, "unit": "mg/100 ml"}]}
